In patent US10160747B2, “Compounds and methods for kinase modulation, and indications therefor” (Plexxikon Inc., priority 2016, dated 2018):

Molecular target: T1, BA/F3-FLT3-ITD + D835Y (Homo sapiens, UniProt P36888, D835Y, cells depend on it, form not given)
T1 sequence (P36888 with tags, fused parts or gaps INS600HVDFREYEYD/D835Y): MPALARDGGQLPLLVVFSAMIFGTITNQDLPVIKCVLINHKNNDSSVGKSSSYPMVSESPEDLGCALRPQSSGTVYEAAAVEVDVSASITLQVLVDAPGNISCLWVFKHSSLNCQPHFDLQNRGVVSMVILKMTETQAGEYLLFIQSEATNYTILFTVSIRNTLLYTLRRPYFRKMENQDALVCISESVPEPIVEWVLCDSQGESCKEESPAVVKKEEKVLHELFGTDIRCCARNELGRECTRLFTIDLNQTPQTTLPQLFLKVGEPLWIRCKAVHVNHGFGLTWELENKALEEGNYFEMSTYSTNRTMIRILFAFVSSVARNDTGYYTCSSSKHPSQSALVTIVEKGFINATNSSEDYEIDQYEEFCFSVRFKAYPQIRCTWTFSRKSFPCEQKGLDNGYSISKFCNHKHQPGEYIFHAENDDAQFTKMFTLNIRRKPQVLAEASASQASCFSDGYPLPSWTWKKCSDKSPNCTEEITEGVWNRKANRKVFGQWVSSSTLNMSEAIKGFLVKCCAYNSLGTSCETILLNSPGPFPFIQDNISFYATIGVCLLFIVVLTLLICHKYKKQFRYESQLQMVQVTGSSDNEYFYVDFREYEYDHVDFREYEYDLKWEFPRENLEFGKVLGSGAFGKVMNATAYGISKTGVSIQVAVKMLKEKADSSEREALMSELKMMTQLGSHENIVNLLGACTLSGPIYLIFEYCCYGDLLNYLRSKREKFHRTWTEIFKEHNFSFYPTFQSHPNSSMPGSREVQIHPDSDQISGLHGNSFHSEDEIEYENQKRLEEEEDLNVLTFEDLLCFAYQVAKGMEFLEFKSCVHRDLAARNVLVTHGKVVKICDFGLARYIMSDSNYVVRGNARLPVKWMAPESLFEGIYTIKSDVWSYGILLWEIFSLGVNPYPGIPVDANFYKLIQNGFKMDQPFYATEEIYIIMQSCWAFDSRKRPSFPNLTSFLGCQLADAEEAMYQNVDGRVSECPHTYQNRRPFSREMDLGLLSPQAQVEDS
Assay: Engineered BA/F3 cell growth assay, FLT3 ITD/D835Y
Type: cell-based, murine
Details: 3 d growth
How it was run: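 Murine Ba/F3 cells transfected with full-length FLT3 ITD/D835Y, grown without IL-3 so growth depends on FLT3. Seeded at 1×10^4 cells/well, 8-point 1:3 series to 1 μM top (0.2% DMSO), 3 days at 37 °C. CellTiter-Glo luminescence (ATP) versus concentration gave IC50.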

GI50, 0.0001 to 10 µM:
Cn1cc(Nc2ncc(-c3ccc(CC(=O)NCc4ccc(C(F)(F)F)nc4)c(F)c3)cn2)cn1 [Compound P-0087, 2-[2-fluoro-4-[2-[(1-methylpyrazol-4-yl)amino]pyrimidin-5-yl]phenyl]-N-[[6-(trifluoromethyl)-3-pyridyl]methyl]acetamide]
CC(C)(C)c1ccc(NC(=O)Cc2ccc(-c3cnc4[nH]cc(F)c4c3)cc2F)cn1 [Compound P-0043, N-(6-tert-butyl-3-pyridyl)-2-[2-fluoro-4-(3-fluoro-1H-pyrrolo[2,3-b]pyridin-5-yl)phenyl]acetamide]
Cn1cc(Nc2ncc(-c3ccc(CC(=O)Nc4cc(C(F)(F)F)ccn4)c(F)c3)cn2)cn1 [Compound P-0082, 2-[2-fluoro-4-[2-[(1-methylpyrazol-4-yl)amino]pyrimidin-5-yl]phenyl]-N-[4-(trifluoromethyl)-2-pyridyl]acetamide]
Cc1ncc(NC(=O)Cc2ccc(-c3cnc(Nc4cnn5ccccc45)nc3)cc2F)cc1C(F)(F)F [Compound P-0065, 2-(2-fluoro-4-(2-(pyrazolo[1,5-a]pyridin-3-ylamino)pyrimidin-5-yl)phenyl)-N-(6-methyl-5-(trifluoromethyl)pyridin-3-yl)acetamide]
COc1nn(C[C@H](C)O)cc1Nc1ncc(-c2ccc(CC(=O)Nc3cncc(C(F)(F)F)c3)c(F)c2)cn1 [Compound P-0050, 2-[2-fluoro-4-[2-[[1-[(2S)-2-hydroxypropyl]-3-methoxy-pyrazol-4-yl]amino]pyrimidin-5-yl]phenyl]-N-[5-(trifluoromethyl)-3-pyridyl]acetamide]
COc1cncc(NC(=O)Cc2ccc(-c3cnc(Nc4cnn(C)c4)nc3)cc2F)c1 [Compound P-0086, 2-[2-fluoro-4-[2-[(1-methylpyrazol-4-yl)amino]pyrimidin-5-yl]phenyl]-N-(5-methoxy-3-pyridyl)acetamide]
COc1ncc(NC(=O)Cc2ccc(-c3cnc(Nc4cn[nH]c4)nc3)cc2)cc1C(F)(F)F [Compound P-0025, N-[6-methoxy-5-(trifluoromethyl)-3-pyridyl]-2-[4-[2-(1H-pyrazol-4-ylamino)pyrimidin-5-yl]phenyl]acetamide]
Cn1cnc(Nc2ncc(-c3ccc(CC(=O)Nc4cc(C(C)(F)F)ccn4)cc3F)cn2)c1 [Compound P-0171, N-[4-(1,1-difluoroethyl)-2-pyridyl]-2-[3-fluoro-4-[2-[(1-methylimidazol-4-yl)amino]pyrimidin-5-yl]phenyl]acetamide]
Cn1cnc(Nc2ncc(-c3cc(F)c(CC(=O)Nc4cncc(C(F)(F)F)c4)cc3F)cn2)c1 [Compound P-0078, 2-(2,5-difluoro-4-(2-((1-methyl-1H-imidazol-4-yl)amino)pyrimidin-5-yl)phenyl)-N-(5-(trifluoromethyl)pyridin-3-yl)acetamide]
O=C(Cc1ccc(-c2cnc3[nH]cc(F)c3c2)cc1F)Nc1cc(Cl)c(C2CC2)cn1 [Compound P-0044, N-(4-chloro-5-cyclopropyl-2-pyridyl)-2-[2-fluoro-4-(3-fluoro-1H-pyrrolo[2,3-b]pyridin-5-yl)phenyl]acetamide]
Cn1cc(Nc2ncc(-c3ccc(CC(=O)Nc4cncc(C(F)(F)F)c4)c(F)c3)cn2)cn1 [Compound P-0084, 2-[2-fluoro-4-[2-[(1-methylpyrazol-4-yl)amino]pyrimidin-5-yl]phenyl]-N-[5-(trifluoromethyl)-3-pyridyl]acetamide]
O=C(Cc1ccc(-c2cnc3[nH]cc(C(=O)C4CC4)c3c2)cc1F)Nc1ccnc(C(F)(F)F)c1 [Compound P-0032, 2-[4-[3-(cyclopropanecarbonyl)-1H-pyrrolo[2,3-b]pyridin-5-yl]-2-fluoro-phenyl]-N-[2-(trifluoromethyl)-4-pyridyl]acetamide]
Cn1cc(Nc2ncc(-c3ccc(CC(=O)Nc4ccnc(C(F)(F)F)c4)c(F)c3)cn2)cn1 [Compound P-0083, 2-[2-fluoro-4-[2-[(1-methylpyrazol-4-yl)amino]pyrimidin-5-yl]phenyl]-N-[2-(trifluoromethyl)-4-pyridyl]acetamide]
O=C(Cc1ccc(-c2cnc3[nH]cc(Cl)c3n2)cc1F)Nc1cnc(Cl)c(C(F)(F)F)c1 [Compound P-0060, 2-[4-(7-chloro-5H-pyrrolo[2,3-b]pyrazin-2-yl)-2-fluoro-phenyl]-N-[6-chloro-5-(trifluoromethyl)-3-pyridyl]acetamide]
Cc1ncc(NC(=O)Cc2ccc(-c3cnc4[nH]nc(C5CC5)c4c3)cc2F)cc1C(F)(F)F [Compound P-0066, 2-(4-(3-cyclopropyl-1H-pyrazolo[3,4-b]pyridin-5-yl)-2-fluorophenyl)-N-(6-methyl-5-(trifluoromethyl)pyridin-3-yl)acetamide]
Cc1nn(C)cc1Nc1ncc(-c2ccc(CC(=O)Nc3cnc(C)c(C(F)(F)F)c3)c(F)c2)cn1 [Compound P-0077, 2-[4-[2-[(1,3-dimethylpyrazol-4-yl)amino]pyrimidin-5-yl]-2-fluoro-phenyl]-N-[6-methyl-5-(trifluoromethyl)-3-pyridyl]acetamide]
O=C(Cc1cc(F)c(-c2cnc(Nc3cnn4ccccc34)nc2)cc1F)Nc1cncc(C(F)(F)F)c1 [Compound P-0075, 2-[2,5-difluoro-4-[2-(pyrazolo[1,5-a]pyridin-3-ylamino)pyrimidin-5-yl]phenyl]-N-[5-(trifluoromethyl)-3-pyridyl]acetamide]
CC(=O)c1c[nH]c2ncc(-c3ccc(CC(=O)Nc4cncc(C(F)(F)F)c4)c(F)c3)cc12 [Compound P-0055, 2-[4-(3-acetyl-1H-pyrrolo[2,3-b]pyridin-5-yl)-2-fluoro-phenyl]-N-[5-(trifluoromethyl)-3-pyridyl]acetamide]
Cn1cc(Nc2ncc(-c3ccc(CC(=O)Nc4cncc(C5CC5)c4)c(F)c3)cn2)cn1 [Compound P-0081, N-(5-cyclopropyl-3-pyridyl)-2-[2-fluoro-4-[2-[(1-methylpyrazol-4-yl)amino]pyrimidin-5-yl]phenyl]acetamide]
O=C(Cc1ccc(-c2cnc(Nc3cnn4ccccc34)nc2)cc1F)Nc1cncc(C(F)(F)F)c1 [Compound P-0058, 2-[2-fluoro-4-[2-(pyrazolo[1,5-a]pyridin-3-ylamino)pyrimidin-5-yl]phenyl]-N-[5-(trifluoromethyl)-3-pyridyl]acetamide]
Cc1ncc(NC(=O)Cc2ccc(-c3cnc4[nH]cc(Cl)c4n3)cc2F)cc1C(F)(F)F [Compound P-0059, 2-[4-(7-chloro-5H-pyrrolo[2,3-b]pyrazin-2-yl)-2-fluoro-phenyl]-N-[6-methyl-5-(trifluoromethyl)-3-pyridyl]acetamide]
O=C(Cc1ccc(-c2cnc(Nc3cnn4ccccc34)nc2)cc1)Nc1cncc(C(F)(F)F)c1 [Compound P-0074, 2-[4-[2-(pyrazolo[1,5-a]pyridin-3-ylamino)pyrimidin-5-yl]phenyl]-N-[5-(trifluoromethyl)-3-pyridyl]acetamide]
COc1ncc(NC(=O)Cc2cc(F)c(-c3cnc4[nH]cc(F)c4c3)cc2F)cc1C(F)(F)F [Compound P-0051, 2-[2,5-difluoro-4-(3-fluoro-1H-pyrrolo[2,3-b]pyridin-5-yl)phenyl]-N-[6-methoxy-5-(trifluoromethyl)-3-pyridyl]acetamide]
Cc1cc(CC(=O)Nc2cccc(C(F)(F)F)c2)ccc1-c1cnc2[nH]c(-c3ccccc3)cc2c1 [Compound P-0002, 2-[3-methyl-4-(2-phenyl-1H-pyrrolo[2,3-b]pyridin-5-yl)phenyl]-N-[3-(trifluoromethyl)phenyl]acetamide]
Cc1ncc(NC(=O)Cc2ccc(-c3cnc4[nH]cc(Cl)c4n3)cc2)cc1C(F)(F)F [Compound P-0079, 2-(4-(7-chloro-5H-pyrrolo[2,3-b]pyrazin-2-yl)phenyl)-N-(6-methyl-5-(trifluoromethyl)pyridin-3-yl)acetamide]
COc1ncc(NC(=O)Cc2ccc(-c3cnc4[nH]c(Cl)cc4c3)cc2F)cc1C(F)(F)F [Compound P-0038, 2-[4-(2-chloro-1H-pyrrolo[2,3-b]pyridin-5-yl)-2-fluoro-phenyl]-N-[6-methoxy-5-(trifluoromethyl)-3-pyridyl]acetamide]
O=C(Cc1ccc(-c2cnc3[nH]c(Cl)cc3c2)cc1F)Nc1ccnc(C(F)(F)F)c1 [Compound P-0030, 2-[4-(2-chloro-1H-pyrrolo[2,3-b]pyridin-5-yl)-2-fluoro-phenyl]-N-[2-(trifluoromethyl)-4-pyridyl]acetamide]
